{
  "source": "patent US20050044578A1",
  "about": "“Rat highly sensitive to carcinogen” (priority 2001, published 2005)",
  "key": {"wild-type rats": {"test_system": "wild-type rats", "assay": "Sensitivity to hepatocarcinogenesis by diethyl nitrosamine, GST-P-positive foci in liver, wild-type rats", "format": "in vivo, rat", "conditions": "eight-week-old male, 200 mg/kg intraperitoneally, 20 weeks after the administration, per 1 cm^2", "protocol": "(§1) The livers taken from each of the above-mentioned rats were fixed with acetone and embedded in paraffine, sliced, and then GST-P, a precancerous hepatic lesion marker, was immunostained for visualization (FIG. 4, left). Further, the number and the area of positive foci per unit area in the GST-P-positive foci were measured with an image analyzer (IPAP, Olympus) (FIG. 4, right)."}, "transgenic rats": {"test_system": "transgenic rats", "assay": "Sensitivity to hepatocarcinogenesis by diethyl nitrosamine, GST-P-positive foci in liver, transgenic rats (mutant connexin 32)", "format": "in vivo, rat", "conditions": "200 mg/kg intraperitoneally", "protocol": "as §1"}, "[1]": {"conditions": "transgenic rats, eight-week-old male, 20 weeks after the administration, liver, per 1 cm^2"}},
  "data": [
    {"compound": "CCN(CC)N=O", "note": "[diethyl nitrosamine]", "values": [
      {"measurement": "area of the GST-P-positive foci per unit area (1 cm^2)", "setting": "wild-type rats", "value": 0.2, "unit": "mm^2"},
      {"measurement": "number of the GST-P-positive foci per unit area (1 cm^2)", "setting": "wild-type rats", "value": 11.1},
      {"measurement": "sensitivity of the transgenic rats to the hepatocarcinogen", "setting": "transgenic rats; transgenic rats in comparison to wild-type rats, 20 weeks", "value": "extremely high sensitivity"},
      {"measurement": "area of the GST-P-positive foci per unit area (1 cm^2)", "setting": "transgenic rats; [1]", "value": 3.32, "unit": "mm^2"},
      {"measurement": "number of the GST-P-positive foci per unit area (1 cm^2)", "setting": "transgenic rats; [1]", "value": 79.8}
    ]}
  ]
}
